Laboratory results reported in the NIST ThermoML archive (doi:10.1021/je020140j).

Assay: molar heat capacity at constant pressure; xn = mol fraction of the nth substance listed
Conditions: 101 kPa, Liquid, Small sample (50 mg) DSC

OCCO [1,2-ethanediol] + O
molar heat capacity at constant pressure [J/K/mol]
Conditions | x1 = 0.0312 | x1 = 0.0676 | x1 = 0.1105 | x1 = 0.162 | x1 = 0.2248 | x1 = 0.3031 | x1 = 0.4036 | x1 = 0.537 | x1 = 0.723 | x1 = 1
293.15 K | 88.03 | 87.6 | 86.7 | 89.39 | 93.61 | 98.37 | 104.66 | 114.3 | 127.9 | 147.47
303.15 K | 87.89 | 87.81 | 87.05 | 89.67 | 94.42 | 99.15 | 105.99 | 115.72 | 129.45 | 149.71
313.15 K | 88.36 | 88.19 | 87.48 | 90.47 | 94.89 | 100.31 | 108.06 | 117.68 | 131.2 | 152
323.15 K | 88.63 | 88.59 | 87.53 | 91 | 95.93 | 101.88 | 109.53 | 119.76 | 133.39 | 153.8
333.15 K | 88.8 | 88.99 | 87.76 | 91.5 | 96.6 | 102.38 | 111 | 121.18 | 135.38 | 156.22
343.15 K | 88.88 | 89.1 | 88.31 | 92.56 | 97.46 | 103.64 | 111.93 | 122.85 | 138.08 | 159.7
353.15 K | 89.15 | 89.47 | 88.97 | 92.31 | 98.61 | 104.99 | 113.83 | 124.97 | 140.57 | 161
363.15 K | 89.25 | 89.6 | 89.27 | 93.51 | 99.61 | 106.52 | 115.04 | 126.81 | 142.17 | 164.98
373.15 K | – | – | 89.52 | 93.89 | 100.23 | 107.47 | 116.01 | 128.22 | 144.36 | 168.45
